Results published in ChEMBL document CHEMBL1152049, “Dual metalloprotease inhibitors.v. Utilization of bicyclic azepinonethiazolidines and azepinonetetrahydrothiazines in constrained peptidomimetics of mercaptoacyl dipeptides” (Bioorg Med Chem Lett, 1995).

Key:
[1] = target: T1, Angiotensin-converting enzyme (Rattus norvegicus, UniProt P47820); experiment: In vitro inhibitory activity against angiotensin converting enzyme (ACE); details: read-out: I50
T1 sequence (P47820 whole entry): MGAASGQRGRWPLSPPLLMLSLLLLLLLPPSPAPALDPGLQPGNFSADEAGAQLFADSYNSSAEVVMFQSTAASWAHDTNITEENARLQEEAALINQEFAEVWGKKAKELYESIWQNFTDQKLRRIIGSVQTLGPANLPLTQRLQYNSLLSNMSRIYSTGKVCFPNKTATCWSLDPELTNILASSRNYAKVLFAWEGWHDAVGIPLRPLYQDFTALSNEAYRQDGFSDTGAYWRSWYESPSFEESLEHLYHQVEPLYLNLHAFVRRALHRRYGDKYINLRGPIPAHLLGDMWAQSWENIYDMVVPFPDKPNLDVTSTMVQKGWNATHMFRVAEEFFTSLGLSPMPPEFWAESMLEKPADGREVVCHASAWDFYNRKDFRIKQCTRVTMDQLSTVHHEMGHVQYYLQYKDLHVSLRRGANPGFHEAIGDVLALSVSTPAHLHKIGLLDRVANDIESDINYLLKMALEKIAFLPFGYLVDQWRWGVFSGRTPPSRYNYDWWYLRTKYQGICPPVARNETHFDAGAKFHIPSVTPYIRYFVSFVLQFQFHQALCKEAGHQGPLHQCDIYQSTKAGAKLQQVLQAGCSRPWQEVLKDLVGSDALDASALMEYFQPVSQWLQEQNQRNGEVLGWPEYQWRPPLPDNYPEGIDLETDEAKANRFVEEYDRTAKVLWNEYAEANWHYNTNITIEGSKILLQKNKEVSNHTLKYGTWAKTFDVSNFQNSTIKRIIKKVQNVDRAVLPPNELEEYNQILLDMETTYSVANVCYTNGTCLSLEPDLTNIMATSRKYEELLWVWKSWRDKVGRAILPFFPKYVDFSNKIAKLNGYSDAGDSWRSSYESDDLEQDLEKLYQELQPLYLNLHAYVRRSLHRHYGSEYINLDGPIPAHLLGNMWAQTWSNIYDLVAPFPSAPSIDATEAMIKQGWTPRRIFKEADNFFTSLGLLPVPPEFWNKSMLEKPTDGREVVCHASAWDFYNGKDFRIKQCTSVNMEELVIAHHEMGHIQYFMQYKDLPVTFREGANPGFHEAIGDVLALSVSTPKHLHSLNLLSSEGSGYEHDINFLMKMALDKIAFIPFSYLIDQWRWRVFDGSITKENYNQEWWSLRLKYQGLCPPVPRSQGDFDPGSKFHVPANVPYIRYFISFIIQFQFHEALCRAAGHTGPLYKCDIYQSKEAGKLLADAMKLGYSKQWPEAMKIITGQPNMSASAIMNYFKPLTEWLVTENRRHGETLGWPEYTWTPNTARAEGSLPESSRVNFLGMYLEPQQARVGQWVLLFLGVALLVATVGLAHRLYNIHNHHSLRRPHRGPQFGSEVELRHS

[2] = target: T2, Neprilysin (Rattus norvegicus, UniProt P07861); experiment: In vitro inhibitory activity against neutral endopeptidase (NEP); details: read-out: I50
T2 sequence (P07861 whole entry): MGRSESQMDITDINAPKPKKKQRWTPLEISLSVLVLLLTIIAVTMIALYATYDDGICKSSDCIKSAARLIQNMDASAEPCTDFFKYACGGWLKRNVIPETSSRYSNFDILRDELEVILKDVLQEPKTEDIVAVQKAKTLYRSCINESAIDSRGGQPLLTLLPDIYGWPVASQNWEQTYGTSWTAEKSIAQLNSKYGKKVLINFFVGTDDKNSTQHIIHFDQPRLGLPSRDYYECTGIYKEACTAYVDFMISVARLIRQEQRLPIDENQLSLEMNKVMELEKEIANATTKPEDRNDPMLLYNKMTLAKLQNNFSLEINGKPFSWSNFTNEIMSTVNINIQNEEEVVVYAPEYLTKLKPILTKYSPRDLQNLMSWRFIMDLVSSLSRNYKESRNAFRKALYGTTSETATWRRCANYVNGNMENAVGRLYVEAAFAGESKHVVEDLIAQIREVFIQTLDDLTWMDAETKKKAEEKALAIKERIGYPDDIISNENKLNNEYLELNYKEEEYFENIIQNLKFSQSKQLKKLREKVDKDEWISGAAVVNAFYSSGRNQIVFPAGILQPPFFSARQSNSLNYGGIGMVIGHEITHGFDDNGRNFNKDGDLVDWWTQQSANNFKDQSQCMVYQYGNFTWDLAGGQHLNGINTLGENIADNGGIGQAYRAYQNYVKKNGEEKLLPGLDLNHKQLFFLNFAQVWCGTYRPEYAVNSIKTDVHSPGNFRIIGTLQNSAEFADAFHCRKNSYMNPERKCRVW

[3] = species on record: Rattus norvegicus; experiment: Dose required to effect 50% inhibition of the AI induced pressor response in normotensive rat; type: functional

| IC50 [1] [µM] | IC50 [2] [µM] | Structure (SMILES) | ED50 [3] [µmol/kg] |
| --- | --- | --- | --- |
| 0.205 | 0.937 | O=C(O)[C@H]1CCS[C@@H]2CCC[C@H](NC(=O)[C@@H](S)Cc3ccccc3)C(=O)N12 |  |
| 0.0115 | 2.82 | O=C(N[C@H]1CCC[C@@H]2SC[C@@H](C(=O)O)N2C1=O)[C@@H](S)Cc1ccccc1 |  |
| 0.0055 | 0.0011 | O=C(N[C@H]1CCC[C@H]2SC[C@@H](C(=O)O)N2C1=O)[C@@H](CS)Cc1ccccc1 | 0.8 |
| 0.0116 | 0.133 | O=C(N[C@H]1CCC[C@@H]2SCC[C@@H](C(=O)O)N2C1=O)[C@@H](S)Cc1ccccc1 |  |
| 0.025 | 0.042 | O=C(N[C@H]1CCC[C@H]2SCC[C@@H](C(=O)O)N2C1=O)[C@@H](S)Cc1ccccc1 |  |
| 0.0016 | 0.0115 | O=C(N[C@H]1CCC[C@H]2SC[C@@H](C(=O)O)N2C1=O)[C@@H](S)Cc1ccccc1 | 0.07 |
